Reference: US8987328B2, “Esters of capsaicinoids as dietary supplements” (Trinity Laboratories, Inc., priority 2008, dated 2015)
Read-outs that look alike come from different tables or passages of the source.

Experiments:
[1] = set-up: species or system human; conditions: in vivo
[2] = in vivo, po
[3] = set-up: species or system human; conditions: in vivo; remark: listed apart in the source
[4] = i.v. administration, rats; cited from earlier work
[5] = cited from earlier work
[6] = p<0.05, cited from earlier work
[7] = cited from earlier work; remark: listed apart in the source
[8] = cholesterol-free diet, 4 mg per animal daily, relative to controls
[9] = diet with 0.2% cholesterol, 4 mg per animal daily
[10] = 30% lard diet, capsaicin 0.14% of diet

## Palmitoyl Ester of Capsaicin USP [palmitoyl-capsaicin USP]
[1]
  body weight: maintained an average weight
  body weight fluctuation over and under average: 2-3 pounds
[2]
  burning or irritation in the stomach: No individual complained of burning or irritation in the stomach
[3]
  LDL cholesterol: ~110 mg/dL
  cholesterol level: normal level

## COc1cc(CNC(=O)CCCCC=CC(C)C)ccc1O [capsaicin, 8-methyl-N-vanillyl-6-nonenamide]
[4]
  time to distribution to brain, spinal cord, liver and blood: ≤ 20 min
[5]; [8]
  HDL-cholesterol: increased significantly
  LDL-cholesterol: increased significantly
  VLDL cholesterol: decreased significantly
  total cholesterol: increased significantly
[5]; cholesterol-free diet, 4 mg per animal daily
  serum triglyceride concentrations: Neither drug had an effect
[5]; [9]
  HDL-cholesterol: increased
  VLDL-cholesterol: reduced
[6]; OGTT in dogs
  plasma insulin levels: elevation
[6]; at 2.5 h in OGTT, n=6, control 6.40+/−0.13
  blood glucose levels: 4.91 mM
[7]; 30% lard diet, capsaicin 0.14% of diet, vs high-fat diet without capsaicin
  serum triglyceride levels: significantly lower
[7]; [10]
  levels of cholesterol: not affected
  levels of free fatty acids: not affected
  levels of pre-beta-lipoprotein: not affected
[7]; high-fat diet rats
  weight of perirenal adipose tissue: reduced in a dose-dependent manner

## COc1cc(CNC(=O)CCCCCCC(C)C)ccc1O [dihydrocapsaicin]
[5]; in vivo
  HDL-cholesterol: increased significantly
  VLDL cholesterol: decreased significantly
  VLDL-cholesterol: reduced
  serum triglyceride concentrations: Neither drug had an effect
  triglycerides: decreased significantly
